In ChEMBL document CHEMBL4043252, “Discovery and structure-based design of 4,6-diaminonicotinamides as potent and selective IRAK4 inhibitors” (Bioorg Med Chem Lett, 2017):

Columns and labels:
[1] = test system: Liver; conditions: human, microsomes
[2] = physchem; conditions: PAMPA, pH 7.4
[3] = in vitro; conditions: mouse, liver microsomes

Row | SMILES | Stability [1] [%] | Papp [2] [nm/s] | remaining at 10 min [3] [%]
1 | CNC(=O)c1cnc(Nc2ccc3ncsc3c2)cc1N[C@@H](c1ccccc1)[C@H](O)CO | 90 | 19 | 21 to 31
2 | CNC(=O)c1cnc(Nc2ccc(OC)c(F)c2)cc1N[C@@H](c1ccccc1)[C@H](O)CO | 80 | 63 | 20
